Measurements taken from article PMC5584945, “Evaluation of robenidine analog NCL195 as a novel broad-spectrum antibacterial agent” (PLoS ONE, 2017).
≈ marks a conversion by molar mass, not a printed value. Like-named read-outs stand apart in the source and are kept apart here.

Legend:
S. aureus = assay: MIC, broth micro-dilution (CLSI); type: cell-based, Staphylococcus aureus; conditions: for MIC / MIC50 / MIC90: Staphylococcus aureus
[1] = tested on: Enterococcus faecalis ATCC 29212; assay: MIC, broth micro-dilution (CLSI), control strain; type: cell-based
Protocol: MICs for NCL812 and its analogs (serial two-fold dilutions commencing at 128 μg/ml) were determined (in duplicate) in round bottom 96-well microtitre trays (Sarstedt 82.1582.001), using the broth micro-dilution method recommended by the Clinical and Laboratory Standards Institute (CLSI). […] MIC50, MIC90 and MIC range for NCL812, NCL195 and NCL219 were calculated against each S. pneumoniae, S. aureus or VRE isolate. To assess the potential activity of NCL195 against Gram-negative bacteria, MICs against Acinetobacter spp, E. coli, K. pneumoniae, P. aeruginosa, Proteus spp and Neisseria meningitidis were performed in the presence or absence of 0.08 mM-20 mM EDTA in a standard checkerboard assay.

S. aureus Xen29 = assay: Minimum bactericidal concentration (MBC); type: cell-based; conditions: Staphylococcus aureus, 99.9% colony count reduction
Protocol: The tray was covered with Breathe-Easy sealing membrane (Z380059, Sigma-Aldrich) and incubated for 16 h overnight at 35°C in an EnSpire Multimode Plate Reader 2300 (PerkinElmer), with data collected every 20 min and 2 sec agitation at 60 rpm between data (A600 nm) acquisitions. The experiment was repeated using the luminescent D39LUX strain on a Cytation 5 Cell Imaging Multi-Mode Reader (BioTek) using IsoplateTM-96 F tray PerkinElmer, 6005020). Kill kinetic assays on S. aureus Xen29 was carried out essentially as described for MIC determination on Cytation 5 Cell Imaging Multi-Mode Reader.
In order to determine the MBC of each compound against S. pneumoniae D39 or S. aureus Xen29, 10 μl aliquots from each duplicate well from the MIC assays (starting from the MIC for each compound) was inoculated onto a HBA plate and incubated at 37°C (+ 5% CO2 for S. pneumoniae D39). Plates were examined at 24 and 48 h and the MBC was recorded as the lowest concentration of each test compound at which a 99.9% colony count reduction was observed on the plate.

S. aureus ATCC49775 = assay: Membrane potential, DiOC2(3) fluorescence; type: cell-based, Staphylococcus aureus; conditions: 16 μg/ml, pre-incubated 5 min; versus untreated and ampicillin
Protocol: To further examine the mechanism underlying the perturbation of the cell membrane of S. pneumoniae or S. aureus by the NCL compounds, the membrane potential of the cells was measured by fluorescence spectrometry using (DiOC2(3), essentially as described previously. Briefly, […] cells from an overnight HBA plate were grown in Todd-Hewitt broth supplemented with 1% yeast extract (THY) at 37°C, 5% CO2 until A600 nm = 0.5. […] The cuvette was then placed in a LS 55 Fluorescence Spectrometer (PerkinElmer) set at Ex. 488 nm/Em. 620 nm, with excitation and emission slit widths at 5 nm and 7 nm, respectively). […] All assays were performed at least twice.

[2] = LogD by gradient HPLC chromatographic method; type: physicochemical; conditions: pH 7.4
human red blood cells = assay: Haemolysis assay; type: cell-based; conditions: 1 h, 37°C; highest concentration used 128 μg/ml
Protocol: This was performed using fresh donor human red blood cells (RBCs), essentially as described previously. Fresh RBCs were washed in PBS three times at 500 × g for 5 min, and then resuspended 1% (w/v) in PBS. […] Thereafter, 198 μL of the 1% RBC solution was added into each well, and the mixture incubated for 1 h at 37°C, with shaking at 100 rpm. Quadruplicate wells containing either 1% Triton X100, or PBS only, served as controls. After incubation, the trays were centrifuged at 1,000 × g for 3 min and 100 μl of supernatant from each well transferred into a new 96-well tray. Absorbance was measured at A450 nm on a Multiskan Ascent 354 Spectrophotometer (Labsystems) and plotted against each dilution. Haemolytic titer was determined as the reciprocal of the dilution at which 50% of erythrocytes were lysed at A450 nm. The experiment was performed twice.

MDBK = assay: In vitro cytotoxicity, WST-1; type: cell-based, bovine; conditions: Bos taurus, 24 h exposure, read-out: IC50 values ± SEM
Source text: (§1) In order to ensure minimal off target mammalian cell cytotoxicity, we assayed NCL812, NCL195 and NCL219 for in vitro cytotoxicity using a panel of adherent mammalian cell lines: Caco-2 (human colorectal adenocarcinoma cell line), HEL 299 (non-cancerous human lung fibroblast cell line), Hep G2 (human hepatocellular carcinoma cell line), MDBK (normal bovine kidney cell line) and MCF7 (human mammary gland adenocarcinoma cell line). Cell lines were maintained in Dulbecco’s Modified Eagle’s Medium (DMEM; […] After 24 h incubation, media was removed, washed once with medium without antibiotics and fresh medium supplemented with 10% (vol/vol) FBS was added. […] Following exposure for 24 h, WST-1 reagent was added to each well at a final concentration of 10%. […] The IC50 value for each compound against each cell line was determined via non-linear regression (three parameters) using GraphPad Prism v6 software. The robustness of assays was confirmed with selected cell lines (Hep G2 and MDBK) seeded onto a 96–well Microwell Nunclon Delta Surface plate (Thermo Scientific Nunc; Cat No: 136101) at 5 × 10^4 cells per well.

Hep G2 = assay: Real-time cell viability, RealTime-Glo MT; type: cell-based, human; conditions: 2 or 8 μg/ml, up to 20 h post-treatment
[3] = tested on: panel of mammalian cell lines (Caco-2, HEL 299, Hep G2, MDBK, MCF7); assay: In vitro cytotoxicity, WST-1, all cell lines tested; type: cell-based; conditions: lower bound over all the cell lines tested
Source text: as §1

[4] = S2 Table isolates, absence of FBS

Cc1ccc(/C=N/Nc2cc(N/N=C/c3ccc(C)cc3)nc(N)n2)cc1 [NCL195, 4,6-bis(2-((E)-4-methylbenzylidene)hydrazinyl)pyrimidin-2-amine]
Fold increase of MIC range in the presence of 10% FBS (S. aureus; 10% FBS versus no FBS): 4 fold
MIC range (S. aureus; 23 isolates): 1 to 2 µg/mL
MIC range (S. aureus; S2 Table isolates, 10% FBS): 4 to 8 µg/mL
MIC range (S. aureus; [4]): 1 to 2 µg/mL
Fold increase in MIC in the presence of serum (S. aureus; S. aureus 49775, human, horse or mouse serum): 4 fold
MIC (S. aureus; ATCC 12600 / MSSA, ATCC12600 [Xen29] (MSSA), 10% FBS): 4 µg/mL (≈ 11.1 µM)
MIC (S. aureus; ATCC 12600 / MSSA, ATCC12600 [Xen29] (MSSA), absence of FBS): 1 µg/mL (≈ 2.78 µM)
MIC (S. aureus; ATCC 29213 / MSSA, ATCC29213 MSSA (ST5), 10% FBS, read-out: MIC): 8 µg/mL (≈ 22.3 µM)
MIC (S. aureus; ATCC 29213 / MSSA, ATCC29213 MSSA (ST5), absence of FBS, read-out: MIC): 2 µg/mL (≈ 5.56 µM)
MIC (S. aureus; ATCC 49775 / MSSA, ATCC 49775 (MSSA), 10% FBS, read-out: MIC): 8 µg/mL (≈ 22.3 µM)
MIC (S. aureus; ATCC 49775 / MSSA, ATCC 49775 (MSSA), absence of FBS, read-out: MIC): 2 µg/mL (≈ 5.56 µM)
MIC (S. aureus; IRISH 1 – HA-EMRSA (ST8), 10% FBS, read-out: MIC): 8 µg/mL (≈ 22.3 µM)
MIC (S. aureus; IRISH 1 – HA-EMRSA (ST8), absence of FBS, read-out: MIC): 2 µg/mL (≈ 5.56 µM)
MIC (S. aureus; IRISH 2 – HA-EMRSA (ST8), 10% FBS, read-out: MIC): 4 µg/mL (≈ 11.1 µM)
MIC (S. aureus; IRISH 2 – HA-EMRSA (ST8), absence of FBS, read-out: MIC): 1 µg/mL (≈ 2.78 µM)
MIC (S. aureus; MRSA / USA300, USA 300 - MRSA (ST8), 10% FBS, read-out: MIC): 8 µg/mL (≈ 22.3 µM)
MIC (S. aureus; MRSA / USA300, USA 300 - MRSA (ST8), absence of FBS, read-out: MIC): 2 µg/mL (≈ 5.56 µM)
MIC (S. aureus; MRSA, AUS2-MRSA (ST239), 10% FBS, read-out: MIC): 8 µg/mL (≈ 22.3 µM)
MIC (S. aureus; MRSA, AUS2-MRSA (ST239), absence of FBS, read-out: MIC): 2 µg/mL (≈ 5.56 µM)
MIC (S. aureus; MRSA, AUS3-MRSA (ST239), 10% FBS, read-out: MIC): 4 µg/mL (≈ 11.1 µM)
MIC (S. aureus; MRSA, AUS3-MRSA (ST239), absence of FBS, read-out: MIC): 1 µg/mL (≈ 2.78 µM)
MIC (S. aureus; MRSA, Classic–HA-MRSA (ST250), 10% FBS, read-out: MIC): 8 µg/mL (≈ 22.3 µM)
MIC (S. aureus; MRSA, Classic–HA-MRSA (ST250), absence of FBS, read-out: MIC): 2 µg/mL (≈ 5.56 µM)
MIC (S. aureus; MRSA, NY JAPAN – HA MRSA (ST5), 10% FBS, read-out: MIC): 4 µg/mL (≈ 11.1 µM)
MIC (S. aureus; MRSA, NY JAPAN – HA MRSA (ST5), absence of FBS, read-out: MIC): 1 µg/mL (≈ 2.78 µM)
MIC (S. aureus; MRSA, ST398–CA-MRSA-V (ST398), 10% FBS, read-out: MIC): 8 µg/mL (≈ 22.3 µM)
MIC (S. aureus; MRSA, ST398–CA-MRSA-V (ST398), absence of FBS, read-out: MIC): 2 µg/mL (≈ 5.56 µM)
MIC (S. aureus; MRSA, WA2–CA-MRSA (ST78), 10% FBS, read-out: MIC): 4 µg/mL (≈ 11.1 µM)
MIC (S. aureus; MRSA, WA2–CA-MRSA (ST78), absence of FBS, read-out: MIC): 1 µg/mL (≈ 2.78 µM)
MIC (S. aureus; MRSA, WA3–CA-MRSA (ST5), 10% FBS, read-out: MIC): 4 µg/mL (≈ 11.1 µM)
MIC (S. aureus; MRSA, WA3–CA-MRSA (ST5), absence of FBS, read-out: MIC): 1 µg/mL (≈ 2.78 µM)
MIC (S. aureus; MRSA, WA84–CA-MRSA (ST45), 10% FBS, read-out: MIC): 4 µg/mL (≈ 11.1 µM)
MIC (S. aureus; MRSA, WA84–CA-MRSA (ST45), absence of FBS, read-out: MIC): 1 µg/mL (≈ 2.78 µM)
MIC50 (S. aureus; S2 Table isolates, 10% FBS): 8 µg/mL (≈ 22.3 µM)
MIC90 (S. aureus; S2 Table isolates, 10% FBS): 8 µg/mL (≈ 22.3 µM)
MIC50 (S. aureus; [4]): 2 µg/mL (≈ 5.56 µM)
MIC90 (S. aureus; [4]): 2 µg/mL (≈ 5.56 µM)
MIC (S. aureus; TAIWAN PVL+ – CA-cMRSA (ST59), 10% FBS, read-out: MIC): 4 µg/mL (≈ 11.1 µM)
MIC (S. aureus; TAIWAN PVL+ – CA-cMRSA (ST59), absence of FBS, read-out: MIC): 1 µg/mL (≈ 2.78 µM)
MIC (S. aureus; UK 15 PVL+ – HA-EMRSA (ST22), 10% FBS, read-out: MIC): 8 µg/mL (≈ 22.3 µM)
MIC (S. aureus; UK 15 PVL+ – HA-EMRSA (ST22), absence of FBS, read-out: MIC): 2 µg/mL (≈ 5.56 µM)
MIC (S. aureus; UK 15 – HA-EMRSA (ST22), 10% FBS, read-out: MIC): 8 µg/mL (≈ 22.3 µM)
MIC (S. aureus; UK 15 – HA-EMRSA (ST22), absence of FBS, read-out: MIC): 2 µg/mL (≈ 5.56 µM)
MIC (S. aureus; UK 16 – HA- EMRSA (ST36), 10% FBS, read-out: MIC): 4 µg/mL (≈ 11.1 µM)
MIC (S. aureus; UK 16 – HA- EMRSA (ST36), absence of FBS, read-out: MIC): 1 µg/mL (≈ 2.78 µM)
MIC (S. aureus; UK 17 – HA-EMRSA (ST247), 10% FBS, read-out: MIC): 8 µg/mL (≈ 22.3 µM)
MIC (S. aureus; UK 17 – HA-EMRSA (ST247), absence of FBS, read-out: MIC): 2 µg/mL (≈ 5.56 µM)
MIC ([1]; ATCC29212, 10% FBS): 32 µg/mL
MIC ([1]; ATCC29212, absence of FBS): 4 µg/mL
MBC (S. aureus Xen29): 2 µg/mL (≈ 5.56 µM)
Effect on generated membrane potential (S. aureus ATCC49775): large reduction in the magnitude of the generated membrane potential
chromatographic logD [2]: 4.5
50% haemolysis titre (HC50) (human red blood cells): > 128 µg/mL
IC50 (MDBK): 17.3 ± 0.2 µg/mL (≈ 48.1 µM)
Effect on cell viability (real-time) (Hep G2): no measurable effect on cell viability
IC50 [3]: > 10 µg/mL
